Measurements reported in US5756491A, “Antiviral cobalt-organic compounds” (priority 1991, dated 1998).

Key:
HFF cells = assay: MTT assay for cell cytotoxicity; type: cell-based, human; details: stationary cells
Protocol: Twenty-four hours prior to assay, HFF cells are plated into 96 well plates at a concentration of […] cells per well. After 24 h, the media is aspirated and […] of drug is added to the first row of wells and then diluted serially 1:5 using the automated Cetus Liquid Handling System in a manner similar to that used in the CPE assay. The plates are then incubated in a CO2 incubator at 37° C. for seven days. At this time, each well receives 50 microliters of […] solution of MTT in Dulbecco's Phosphate Buffered Saline. The plates are then incubated for an additional four hours. At this time, the media is removed and replaced with 100 μl of 0.04N hydrochloric acid in isopropanol. After shaking briefly, the plates are then read on a plate reader at 550 nm.

RE strain HSV-1 [1] = assay: Topical efficacy in RE strain HSV-1-induced stromal keratitis in the rabbit; type: in vivo, NZW rabbit
Protocol: The following examples describe topical ocular evaluation of the inventive compounds during RE strain HSV-1-induced stromal keratitis in the rabbit. These evaluations included analysis of the topical efficacy of both the inventive compounds alone, or, in certain instances, in combination with trifluorothymidine (TFT). The evaluation was carried out by the combined analysis of both clinical and virological (HSV-1 recovery) parameters. The specified number of NZW rabbits (1.5-2.0 kg) were used. Animals were received at least two days prior to inoculation to allow them to accommodate to the conditions in the vivarium facility. This conditioning of the animals prior to inoculation minimizes animal variability. After the accommodation, the animals received a slit-lamp examination to exclude any animals with pre-existing anterior segment ocular defects. Animals were bi-laterally inoculated by intrastromal injection of 10^5 PFU RE strain HSV-1. The animals were then replaced individually into cages. On day number three post-inoculation (PI), the animals were evaluated by slit-lamp microscopy. Corneal stromal, iris and conjunctival disease were graded on an increasing scale of severity from 0+ to 4+. After evaluation, the animals were divided into a specified number of groups each containing an equal number of animals based on a matched corneal stromal involvement. Topical therapy was initiated immediately after animal groupings. All animals received daily slit-lamp evaluations from day 3 through 7 PI. The ocular HSV-1 induced disease severity was recorded daily. […] Differences in disease resolution and development of stromal alterations are statistically analyzed. Virus recovery during and after topical therapy was compared. The topical efficacy of Compounds 23 and 96 on stromal HSV-1 infection in the rabbit model of stromal keratitis was evaluated. All animals received daily slit lamp evaluations from day 3 through day 7 and on days 9 and 10 PI. The ocular HSV-1-induced disease severity was recorded daily. The topical efficacy of Compounds 23, 96 and 82 on stromal HSV-1 infection in the rabbit model of stromal keratitis was evaluated. All animals received daily slit lamp evaluations for day 3 through day 7 PI. The ocular HSV-1-induced disease severity was recorded daily. The topical efficacy of Compounds 23 and 96 in combination with TFT on stromal HSV-1 infection in the rabbit model of stromal keratitis was evaluated. Groups 1, 2 and 3 each have 5 animals for a total of 10 eyes per combination therapy. This allowed minimization of individual animal variability and performance of a statistical analysis on the results of the combination therapies. Groups 3, 4 and 5 have 2 animals each. These single-agent therapies were used to verify previously reported data on the efficacy of these compounds. The compounds are used at a lower frequency of delivery to match the dosing regimen of the combination-agent group. Consequently, the study also provides comparative information on Compounds 23 and 96 as a lower frequency of topical administration (4 times per day vs. 9 times per day in previous studies).

[2] = tested on: human foreskin fibroblast (HFF) cell monolayers; assay: Toxicity effects controls: sham-inoculated compound-treated HFF monolayers; type: cell-based; on Toxicity effects: key: +: toxic; -: no toxicity; ±: mild toxicity; T: toxicity effects interfered with CPE rating
Text: With sufficient stirring, all the compounds completely dissolved.
In the tables, the symbols have the meaning indicated: […]

RE strain HSV-1 [3] = assay: HSV-1 recovery from tear film, cornea and trigeminal ganglia of treated rabbits; type: in vivo, NZW rabbit
Text: The specified number of NZW rabbits (1.5-2.0 kg) were used. Animals were received at least two days prior to inoculation to allow them to accommodate to the conditions in the vivarium facility. This conditioning of the animals prior to inoculation minimizes animal variability. After the accommodation, the animals received a slit-lamp examination to exclude any animals with pre-existing anterior segment ocular defects. Animals were bi-laterally inoculated by intrastromal injection of 10^5 PFU RE strain HSV-1. The animals were then replaced individually into cages.
[…] This was carried out by obtaining tear film by swabbing the lower and upper conjunctival sacs and retaining the swab in the nasal fornix for 10 seconds. The swabs were eluted individually in HBSS. 50 μl aliquots of the virus-HBSS eluate were absorbed under confluent HFF cell monolayers for 5 minutes. The monolayers were hydrated with MEM, incubated at 37° C. and observed daily for 1 to 2 weeks to detect developing cytopathology consistent with HSV infection (HSV CPE).
On day 10 PI, the animals were sacrificed, the corneal epithelium was scraped from the eyes and epithelial and corneal stromal cultures were preformed on HFF cell monolayers. The separation of epithelial virus from deeper stromal virus infection allows for analysis of HSV in these distinct corneal layers. Corneal epithelial and stromal co-cultures were evaluated daily by inverted light microscopy.
At sacrifice, trigeminal ganglia were removed, washed in HBSS, minced and floated over duplicate HFF cell monolayers. The cell co-cultures were monitored by inverted light microscopy for 2 weeks. Negative cultures were blind passaged twice at 7 day intervals. Detection of HSV CPE in the whole-cell co-cultures was scored either positive or negative. HSV recovery from inventive compound-treated, TFT-treated and placebo-treated trigeminal ganglia was compared and differences in recovery rates analyzed.
On day 7 PI, the animals were sacrificed, the corneal epithelium was scraped from the eyes and epithelial and corneal stromal cultures were performed on HFF cell monolayers. The separation of epithelial virus from deeper stromal virus infection allows for analysis of HSV in these distinct corneal layers. Corneal epithelial and stromal co-cultures were evaluated daily by inverted light microscopy.

With `CC([O-])=CC(C)=NCCN=C(C)C=C(C)[O-].Cc1ncc[nH]1.Cc1ncc[nH]1.[Br-].[Co+3]` [Compound 96] as the compound, how does the “toxicity IC50, MTT toxicity” value (HFF cells) read?
Its value is greater than 74 MCG/ML.

And the “comparison with all other therapies in reducing/preventing corneal stromal keratitis” value (RE strain HSV-1 [1]; Example 3)?
Its value is “superior to all other therapies in reducing and/or preventing the development of corneal stromal keratitis”.

What about the “scarring vs TFT animals” value (RE strain HSV-1 [1]; Example 3) of the same compound?
Its value is “significantly lower than the scarring in the TFT animals”.

What about the “efficacy ranking during stromal HSV-1 infection” value (RE strain HSV-1 [1]; Example 3, all eyes, FIG. 1, 1 mg/ml (TFT 0.1%), 9x/day, 5 days) of the same compound?
The value was “Compound 96>>Compound 23>TFT>Placebo”.

What about the “comparison with compound 23” value (RE strain HSV-1 [1]; Example 3, all of the therapies used) of the same compound?
Its value is “superior properties in all of the therapies used in the studies as compared to compound 23”.

What about the “efficacy vs other topical therapies” value (RE strain HSV-1 [1]; Example 3, days 4, 5 and 6 PI) of the same compound?
Its value is “significantly better results than the other topical therapies”.

What about the “efficacy vs TFT, Placebo and Compound 23” value (RE strain HSV-1 [1]; Example 3, eyes with stromal disease <0.75 on day 3 PI) of the same compound?
Its value is “statistically better than TFT, Placebo and Compound 23”.

And the “efficacy ranking, average stromal disease scores” value (RE strain HSV-1 [1]; Example 4, FIG. 2)?
The value was “Compound 96>Compound 82>Compound 23>TFT=Placebo”.

What about the “difference between Compound 96 single-agent and Compound 96 plus TFT” value (RE strain HSV-1 [1]; Example 5, FIG. 7, <0.5 on day 3 PI) of the same compound?
Its value is “No difference”.

And the “effect on development and progression of stromal disease” value (RE strain HSV-1 [1]; Example 5, FIG. 7, score <0.5 on day 3 PI, 4 times per day)?
The value was “highly effective and slowed the progression and development stromal disease”.

And the “toxicity at 1 mg/ml (comment)” value [2]?
Its value is “a lack of toxicity”.

What about the toxicity effects ([2]; Experiment 3 (Table 7), 24 h PI, 0.001 mg/ml) of the same compound?
Its toxicity effects is “-”.

What about the toxicity effects ([2]; Experiment 3 (Table 7), 24 h PI, 0.01 mg/ml) of the same compound?
The toxicity effects was “-”.

And the toxicity effects ([2]; Experiment 3 (Table 7), 24 h PI, 0.1 mg/ml)?
Its toxicity effects is “-”.

And the toxicity effects ([2]; Experiment 3 (Table 7), 24 h PI, 1 mg/ml)?
Its toxicity effects is “-”.

And the toxicity effects ([2]; Experiment 3 (Table 7), 48 h PI, 0.001 mg/ml)?
Its toxicity effects is “-”.

And the toxicity effects ([2]; Experiment 3 (Table 7), 48 h PI, 0.01 mg/ml)?
The toxicity effects was “-”.

And the toxicity effects ([2]; Experiment 3 (Table 7), 48 h PI, 0.1 mg/ml)?
Its toxicity effects is “-”.

What about the toxicity effects ([2]; Experiment 3 (Table 7), 48 h PI, 1 mg/ml) of the same compound?
The toxicity effects was “-”.

What about the toxicity effects ([2]; Experiment 4 (Table 10), 24 h, 0.001 mg/ml) of the same compound?
The toxicity effects was “-”.

And the toxicity effects ([2]; Experiment 4 (Table 10), 24 h, 0.01 mg/ml)?
Its toxicity effects is “-”.

What about the toxicity effects ([2]; Experiment 4 (Table 10), 24 h, 0.5 mg/ml) of the same compound?
The toxicity effects was “-”.

And the toxicity effects ([2]; Experiment 4 (Table 10), 24 h, 1 mg/ml)?
The toxicity effects was “-”.

What about the toxicity effects ([2]; Experiment 4 (Table 10), 48 h, 0.001 mg/ml) of the same compound?
The toxicity effects was “-”.

And the toxicity effects ([2]; Experiment 4 (Table 10), 48 h, 0.01 mg/ml)?
Its toxicity effects is “-”.

What about the toxicity effects ([2]; Experiment 4 (Table 10), 48 h, 0.5 mg/ml) of the same compound?
Its toxicity effects is “-”.

And the toxicity effects ([2]; Experiment 5 (Table 13), 24 h, 0.00 mg/ml (so in the source))?
The toxicity effects was “-”.

And the toxicity effects ([2]; Experiment 5 (Table 13), 24 h, 0.01 mg/ml)?
Its toxicity effects is “-”.

What about the toxicity effects ([2]; Experiment 5 (Table 13), 24 h, 0.5 mg/ml) of the same compound?
Its toxicity effects is “-”.

What about the toxicity effects ([2]; Experiment 5 (Table 13), 48 h, 0.00 mg/ml (so in the source)) of the same compound?
Its toxicity effects is “-”.

And the toxicity effects ([2]; Experiment 5 (Table 13), 48 h, 0.01 mg/ml)?
The toxicity effects was “-”.

And the toxicity effects ([2]; Experiment 5 (Table 13), 48 h, 0.5 mg/ml)?
Its toxicity effects is “-”.

What about the toxicity effects ([2]; Experiment 5 (Table 13), 48 h, 5 mg/ml) of the same compound?
Its toxicity effects is “+”.

What about the toxicity effects ([2]; Experiment 6 (Table 15), 48 h, 0.001 mg/ml) of the same compound?
The toxicity effects was “-”.

And the toxicity effects ([2]; Experiment 6 (Table 15), 48 h, 0.01 mg/ml)?
The toxicity effects was “-”.

What about the toxicity effects ([2]; Experiment 6 (Table 15), 48 h, 1 mg/ml) of the same compound?
Its toxicity effects is “-”.

And the “toxicity to HFF monolayers (comment)” value ([2]; Experiment 6 comment, more pronounced at 0.5 and 0.1 mg/ml, cell rounding, detaching, granularity)?
Its value is “toxicity observed”.

And the “HSV-1 recovery, corneal epithelium (C.E.)” value (RE strain HSV-1 [3]; Example 3 (Table 22))?
Its value is 50%.

And the “HSV-1 recovery, corneal stroma (C.S.)” value (RE strain HSV-1 [3]; Example 3 (Table 22))?
The value was 50%.

And the “HSV-1 recovery, trigeminal ganglia (T.G.)” value (RE strain HSV-1 [3]; Example 3 (Table 22))?
Its value is 50%.

What about the “HSV-1 recovery, tear film (positive samples of total)” value (shortened to “HSV-1 recovery, tear film”) (RE strain HSV-1 [3]; Example 3 (Table 22), day 3 PI) of the same compound?
Its value is 100%.

And the “HSV-1 recovery, tear film” value (RE strain HSV-1 [3]; Example 3 (Table 22), day 5 PI)?
The value was 100%.

What about the “HSV-1 recovery, tear film” value (RE strain HSV-1 [3]; Example 3 (Table 22), day 7 PI) of the same compound?
The value was 80%.

What about the “HSV-1 recovery, tear film” value (RE strain HSV-1 [3]; Example 3 (Table 22), day 9 PI) of the same compound?
The value was 0%.

What about the “recovery of HSV-1 in tear film” value (RE strain HSV-1 [3]; Example 4) of the same compound?
Its value is “reduced the recovery of HSV-1 in tear film”.

And the “HSV-1 recovery, corneal stroma” value (RE strain HSV-1 [3]; Example 5 (Table 23))?
Its value is 70%.

And the “HSV-1 recovery (positive cultures per total)” value (RE strain HSV-1 [3]; Example 5 (Table 23), column 1)?
Its value is 0%.

What about the “HSV-1 recovery (positive cultures per total)” value (RE strain HSV-1 [3]; Example 5 (Table 23), column 3) of the same compound?
Its value is 100%.

And the “HSV-1 recovery (positive cultures per total)” value (RE strain HSV-1 [3]; Example 5 (Table 23), column 5)?
The value was 90%.

What about the “HSV-1 recovery (positive cultures per total)” value (RE strain HSV-1 [3]; Example 5 (Table 23), column 7) of the same compound?
The value was 70%.
